Here are results for two molecules from patent US11339150B2, “Benzimidazole compounds as HDAC6 inhibitors” (OnKure, Inc., priority 2019, dated 2022).

Structures are written as SMILES. Bounds are passed on as bounds.

The test system of series [1] is Tubulin deacetylation in U266B1 human myeloma cell line. Description: Tubulin deacetylation inhibition in U266B1 cells. Conditions: Cell Type U266B1. In kind it is cell-based. The method, then:
Tubulin Deacetylation Inhibition
Example 1 was dissolved with DMSO at 10 mM stock. Reference compound TSA was dissolved with DMSO at 10 mM stock. U266B1 human myeloma cell line was purchased from American Type Culture Collection (Manassas, Va.). U266B1 cells were grown in RPMI medium and supplemented with 15% heat-inactivated fetal bovine serum (FBS), 100 μg/ml penicillin, and 100 μg/ml streptomycin. Cultures were maintained at 37° C. in a humidified atmosphere of 5% CO2 and 95% air. 12% Bis-Tris gel and nitrocellulose membrane were purchased from Thermo Fisher. Anti-acetylated-Tubulin antibody (Catalogue #T7451) was purchased from Sigma-Aldrich. Anti-α-Tubulin antibody (Catalogue #sc-12462-R) antibody was purchased from Santa Cruz Biotechnology. Anti-Acetylated Histone H3 (K9) (Catalogue #9649) and anti-Histone H3 (Catalogue #3638) antibodies were purchased from Cell Signaling Technology. Anti-rabbit IgG IRDye 680RD or anti-mouse IgG IRDye 800CW secondary antibodies were purchased from LI-COR.

Series [2] addresses T1, HDAC6 (Homo sapiens, UniProt Q9UBN7).
T1 sequence (Q9UBN7 1-1215): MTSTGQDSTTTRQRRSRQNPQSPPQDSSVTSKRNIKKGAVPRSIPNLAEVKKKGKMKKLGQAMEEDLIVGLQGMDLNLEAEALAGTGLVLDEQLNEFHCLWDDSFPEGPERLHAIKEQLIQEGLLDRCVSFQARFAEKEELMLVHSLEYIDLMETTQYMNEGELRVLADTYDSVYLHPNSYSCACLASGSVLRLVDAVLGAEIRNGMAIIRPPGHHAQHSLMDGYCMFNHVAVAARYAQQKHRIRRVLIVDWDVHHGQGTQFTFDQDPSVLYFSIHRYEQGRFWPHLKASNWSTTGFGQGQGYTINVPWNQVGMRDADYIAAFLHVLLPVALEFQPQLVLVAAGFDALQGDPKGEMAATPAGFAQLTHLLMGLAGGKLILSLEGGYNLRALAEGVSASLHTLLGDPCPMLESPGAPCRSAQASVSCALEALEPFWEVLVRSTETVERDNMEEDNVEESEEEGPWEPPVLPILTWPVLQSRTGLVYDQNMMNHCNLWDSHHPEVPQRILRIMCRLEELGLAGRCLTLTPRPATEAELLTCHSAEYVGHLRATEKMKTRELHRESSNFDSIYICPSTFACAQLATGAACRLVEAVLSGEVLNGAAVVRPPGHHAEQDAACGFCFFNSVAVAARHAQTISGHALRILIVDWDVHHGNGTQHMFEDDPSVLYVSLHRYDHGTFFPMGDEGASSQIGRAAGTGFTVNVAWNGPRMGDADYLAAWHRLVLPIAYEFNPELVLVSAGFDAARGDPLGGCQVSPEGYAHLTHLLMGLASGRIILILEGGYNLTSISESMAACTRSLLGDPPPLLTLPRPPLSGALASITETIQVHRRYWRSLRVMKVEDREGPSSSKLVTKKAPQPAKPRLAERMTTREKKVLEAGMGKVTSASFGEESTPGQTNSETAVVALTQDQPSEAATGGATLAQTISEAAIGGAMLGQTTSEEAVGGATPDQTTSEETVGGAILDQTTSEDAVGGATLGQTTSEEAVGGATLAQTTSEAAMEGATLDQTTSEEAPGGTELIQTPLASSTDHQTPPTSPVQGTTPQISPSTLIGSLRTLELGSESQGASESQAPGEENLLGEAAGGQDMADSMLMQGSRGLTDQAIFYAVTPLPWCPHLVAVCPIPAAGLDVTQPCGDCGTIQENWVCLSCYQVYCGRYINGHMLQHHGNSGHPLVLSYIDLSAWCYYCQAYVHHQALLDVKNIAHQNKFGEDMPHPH
In words: HDAC assay (fluorogenic substrate), HDAC6. The series is classed as biochemical. The method, then:
(§1) Base Reaction buffer: 50 mM Tris-HCl, pH8.0, 137 mM NaCl, 2.7 mM KCl, and 1 mM MgCl2. Add fresh: 1 mg/ml BSA, 1% DMSO
(§2) Fluorogenic HDAC General Substrate: 50 μM, Arg-His-Lys-Lys(Ac)
(§3) • 1. Deliver 2× enzyme in wells of reaction plate except No Enzyme control wells. Add buffer in No En wells. • 2. Deliver compounds in 100% DMSO into the enzyme mixture by Acoustic technology (Echo550; nanoliter range). Spin down and pre-incubation. • 3. Deliver 2× Substrate Mixture (Fluorogenic HDAC Substrate and co-factor if applicable) in all reaction wells to initiate the reaction. Spin and shake. • 4. Incubate for 30 min for Class 2A, 1 hr for HDAC1, 2, 3, and 6, and 2 hr for the rest of HDACs and SIRTs at 30° C. with seal. Development Step: • 5. Add Developer with Trichostatin A (or Nicotinamide for SIRTs) to stop the reaction and to generate fluorescent color. • 6. Kinetic measurement for 1.5 hr with Envision with 15 min interval. (Ex/Em=360/460 nm) • 7. Take endpoint reading for analysis after the development reaches plateau.

The nature of series [3]: Pharmacokinetic evaluation in male CD1 mice. Conditions: mouse, in vivo, po, 10 mg/kg (p.o.).
Series [4] addresses HDAC3 (Homo sapiens, UniProt O15379). Description: HDAC assay (fluorogenic substrate), HDAC3. As to conditions: isoform selectivity table. In kind it is biochemical. How it is done: as §1, §2, §3
For series [5], the target named is HDAC1 (Homo sapiens, UniProt Q13547). In words: HDAC assay (fluorogenic substrate), HDAC1. In kind it is biochemical. Conditions: isoform selectivity table. How it is done:
as §1, §2, §3

Series [6] concerns the target HDAC2 (Homo sapiens, UniProt Q92769). Description: HDAC assay (fluorogenic substrate), HDAC2. In kind it is biochemical. Conditions: isoform selectivity table. How it is done: as §1, §2, §3

HDAC2, sequence (Q92769 whole entry, canonical isoform): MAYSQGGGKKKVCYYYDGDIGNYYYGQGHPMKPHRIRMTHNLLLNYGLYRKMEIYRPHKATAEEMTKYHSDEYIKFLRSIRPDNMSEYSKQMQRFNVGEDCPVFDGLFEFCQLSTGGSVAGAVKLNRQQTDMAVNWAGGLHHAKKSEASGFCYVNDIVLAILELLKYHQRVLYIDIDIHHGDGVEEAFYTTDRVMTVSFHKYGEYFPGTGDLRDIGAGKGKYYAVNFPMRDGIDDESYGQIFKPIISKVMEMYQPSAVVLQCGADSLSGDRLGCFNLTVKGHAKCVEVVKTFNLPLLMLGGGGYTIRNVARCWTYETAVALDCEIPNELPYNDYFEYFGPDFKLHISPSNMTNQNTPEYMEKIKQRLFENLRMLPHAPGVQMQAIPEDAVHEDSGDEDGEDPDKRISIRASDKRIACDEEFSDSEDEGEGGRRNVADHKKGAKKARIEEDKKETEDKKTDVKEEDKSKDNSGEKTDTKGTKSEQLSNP
HDAC3, sequence (O15379 whole entry, canonical isoform): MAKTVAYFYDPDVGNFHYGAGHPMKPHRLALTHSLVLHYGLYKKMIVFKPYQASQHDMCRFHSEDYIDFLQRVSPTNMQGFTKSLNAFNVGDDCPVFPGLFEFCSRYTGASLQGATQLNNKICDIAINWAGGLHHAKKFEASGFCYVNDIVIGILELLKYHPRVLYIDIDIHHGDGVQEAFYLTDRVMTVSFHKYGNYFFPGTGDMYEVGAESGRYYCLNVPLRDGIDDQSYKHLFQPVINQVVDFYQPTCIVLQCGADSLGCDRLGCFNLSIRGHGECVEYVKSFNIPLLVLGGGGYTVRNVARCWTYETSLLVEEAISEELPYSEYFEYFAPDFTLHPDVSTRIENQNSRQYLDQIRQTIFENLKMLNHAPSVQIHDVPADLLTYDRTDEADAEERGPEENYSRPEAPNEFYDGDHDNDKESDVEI
HDAC3, sequence (Q9Y618 395-489 partner limits assumed): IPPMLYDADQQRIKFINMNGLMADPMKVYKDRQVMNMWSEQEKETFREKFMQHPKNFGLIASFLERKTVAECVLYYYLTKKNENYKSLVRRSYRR
HDAC1, sequence (Q13547 whole entry, canonical isoform): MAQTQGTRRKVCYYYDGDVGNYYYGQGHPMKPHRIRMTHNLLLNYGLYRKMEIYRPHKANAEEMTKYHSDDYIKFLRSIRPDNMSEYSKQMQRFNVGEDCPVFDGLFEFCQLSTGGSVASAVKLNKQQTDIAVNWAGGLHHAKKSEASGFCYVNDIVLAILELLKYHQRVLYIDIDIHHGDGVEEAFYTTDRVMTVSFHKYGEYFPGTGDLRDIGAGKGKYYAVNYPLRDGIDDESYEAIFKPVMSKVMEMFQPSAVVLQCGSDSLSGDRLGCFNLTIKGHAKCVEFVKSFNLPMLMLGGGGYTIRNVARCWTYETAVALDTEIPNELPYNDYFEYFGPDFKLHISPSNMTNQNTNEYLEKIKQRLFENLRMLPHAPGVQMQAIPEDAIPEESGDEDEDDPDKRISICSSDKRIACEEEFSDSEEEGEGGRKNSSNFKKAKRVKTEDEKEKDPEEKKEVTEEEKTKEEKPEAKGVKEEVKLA

One may read the IC50 as the concentration at which inhibition is half-maximal. A high value points to a need for much substance. The term inhibition denotes the percentage by which the read-out fell short of the control. Low values mean little suppression, high ones strong suppression. As usually defined, the AUC(0-t) is the area under the concentration-time curve up to a stated or last time point. Low values mean low exposure, high ones high exposure. Usually Cmax stands for the peak of the concentration-time curve. In series [1], `FC(F)c1nnc(-c2cnc(Nc3cc(-c4ccccc4)c4nc[nH]c4c3)nc2)o1` [Example 1, N-(5-(5-(difluoromethyl)-1,3,4-oxadiazol-2-yl)pyrimidin-2-yl)-4-phenyl-1H-benzo[d]imidazol-6-amine] gave a half-inhibitory concentration (IC50) of 2700 nM. Also, the inhibition at 10 µM is more than 90% in series [2], less than 10% in series [4], less than 20% in series [5] and less than 10% in series [6]. Besides, the “% HDAC6 Inhibition @ 10 uM” value in series [2] (10 uM, isoform selectivity table) is listed as more than 90%. The same molecule showed an area under the curve AUC(0-t) in series [3] of 5820 ng·h/mL. Further, in series [3], the peak concentration (Cmax) is 1450 ng/mL. Moreover, in series [3] (read-out: T1/2 h (converted)), the half-life was 105 min.
On to `CC(/C=C/C(=O)NO)=C\[C@@H](C)C(=O)c1ccc(N(C)C)cc1` [Trichostatin, reference compound], for which, in series [1], the half-maximal inhibitory concentration (IC50) is 750 nM.
